Structures are written as SMILES. Values after ≈ are worked out from the molar mass of the structure shown.

Common to all, as to assay: ≥ marks a high value that may be exact or a test limit, other limits are often not marked, values filed in µg/mL are converted to µM
Assay [1] has as its system Staphylococcus aureus KO-4.
In assay [2] the test system is Trypanosoma brucei brucei GUT Tat3.1.
Assay [3] has as its system Trichophyton mentagrophytes IFO 5466.
The test system of assay [4] is Pseudomonas aeruginosa.
Assay [5] relates to Klebsiella aerogenes BCRC 10370.
In assay [6] the test system is Staphylococcus xylosus BCRC 12930.
Assay [7] has as its system Streptococcus equinus BCRC 14729.
Assay [8] has as its system Vibrio alginolyticus BCRC 12829.
The subject of assay [9] is Escherichia coli BCRC 10675.
For assay [10], the system named is Lactococcus garvieae.
Assay [11] relates to Vibrio alginolyticus.
The subject of assay [12] is Vibrio anguillarum serotype O1.
The test system of assay [13] is Vibrio harveyi.
For assay [14], the system named is Enterobacter cloacae BCRC 10401.
The test system of assay [15] is Staphylococcus aureus BCRC 10780.
In assay [16] the test system is Staphylococcus aureus BCRC 10781.
Assay [17] relates to Streptococcus iniae.
Assay [18] deals with Vibrio parahaemolyticus BCRC 10806.
Assay [19] has as its system Klebsiella oxytoca BCRC 13985.
Assay [20] relates to Listeria monocytogenes BCRC 14845.
Assay [21] deals with Vibrio parahaemolyticus.
For assay [22], the system named is Yersinia enterocolitica BCRC 13999.
For assay [23], the system named is Pseudomonas aeruginosa BCRC 10944.
For assay [24], the system named is Listeria ivanovii LMA 94.
Assay [25] relates to Escherichia coli K-12.
Assay [26] concerns Lactococcus lactis subsp. cremoris I116.
Assay [27] relates to Klebsiella pneumoniae CIP 8291.
The subject of assay [28] is Escherichia coli L-.
The subject of assay [29] is Staphylococcus aureus USA 300.
Assay [30] relates to Staphylococcus aureus CIP 677.
Assay [31] deals with Micrococcus luteus ATCC 9341.
Assay [32] concerns Shigella flexneri ATCC 203.
For assay [33], the system named is Candida albicans ATCC 36232.
For assay [34], the system named is Bacillus subtilis ATCC 6633.
For assay [35], the system named is Pseudomonas aeruginosa ATCC 9027.
In assay [36] the test system is Staphylococcus aureus ATCC 6538.
In assay [37] the test system is Escherichia coli ATCC 2592.
In assay [38] the test system is Corynebacterium diphtheriae ATCC 8024.
For assay [39], the system named is Staphylococcus aureus.
The test system of assay [40] is Staphylococcus epidermidis ATCC 12228.
The subject of assay [41] is Staphylococcus simulans.
In assay [42] the test system is Micrococcus luteus.
Assay [43] concerns Staphylococcus epidermidis LT1324.
In assay [44] the test system is Escherichia coli D21.
In assay [45] the test system is Pseudomonas aeruginosa ATCC 27853.
Assay [46] relates to Escherichia coli ATCC 25922.
Assay [47] relates to Staphylococcus aureus II ATCC 6538P.
Assay [48] deals with Acinetobacter baumannii ATCC 19606.

A word on the MIC: it is the lowest concentration found to suppress growth. For the molecule `CC[C@H](C)[C@H](NC(=O)[C@H](CCCN=C(N)N)NC(=O)[C@H](CC(C)C)NC(=O)[C@H](CC(C)C)NC(=O)[C@H](CC(C)C)NC(=O)[C@@H](N)CCCN=C(N)N)C(=O)NCC(=O)N[C@@H](CCCN=C(N)N)C(=O)N[C@@H](CCCN=C(N)N)C(N)=O` [RLLLRIGRR], the MIC in assay [1] is no less than 521 µM; in assay [2], no less than 325 µM; in [3], 13 µM (≈ 15 µg/mL); in assay [4], 347 µM (≈ 400 µg/mL).
As to `CC(C)C[C@H](NC(=O)[C@H](C)NC(=O)[C@H](CC(N)=O)NC(=O)[C@H](C)NC(=O)[C@H](Cc1ccccc1)NC(=O)[C@H](CCCCN)NC(=O)[C@H](CCCCN)NC(=O)[C@H](C)NC(=O)[C@H](CC(C)C)NC(=O)[C@H](CC(N)=O)NC(=O)[C@H](C)NC(=O)[C@H](CC(C)C)NC(=O)[C@H](CCCCN)NC(=O)[C@H](CCCCN)NC(=O)[C@H](C)NC(=O)[C@H](Cc1ccc(O)cc1)NC(=O)[C@H](CC(N)=O)NC(=O)[C@H](Cc1ccc(O)cc1)NC(=O)CN)C(=O)N[C@@H](Cc1c[nH]c2ccccc12)C(=O)O` [GYNYAKKLANLAKKFANALW], the MIC was 7 µM (≈ 16 µg/mL) in assay [5]; 3.5 µM (≈ 8 µg/mL) in assay [6]; no less than 56 µM in assay [7]; no less than 56 µM in assay [8]; 3.5 µM (≈ 8 µg/mL) in [9]; 14 µM (≈ 32 µg/mL) in [10]. Moreover, the MIC amounted to 1.75 µM (≈ 4 µg/mL) in [11]; 1.75 µM (≈ 4 µg/mL) in [12]; 3.5 µM (≈ 8 µg/mL) in [13]; 3.5 µM (≈ 8 µg/mL) in assay [14]; 7 µM (≈ 16 µg/mL) in [15]; 14 µM (≈ 32 µg/mL) in [16]. The MIC in assay [17] was 28 µM (≈ 64 µg/mL); in assay [18], no less than 56 µM; in assay [19], 7 µM (≈ 16 µg/mL); in assay [20], 7 µM (≈ 16 µg/mL); in [21], 1.75 µM (≈ 4 µg/mL); in assay [22], 14 µM (≈ 32 µg/mL). Also, the MIC in assay [23] worked out at 14 µM (≈ 32 µg/mL).
As for `CC[C@H](C)[C@H](NC(=O)[C@H](CCCCN)NC(=O)CNC(=O)[C@H](CC(C)C)NC(=O)[C@@H](NC(=O)[C@H](C)NC(=O)[C@H](CCCCN)NC(=O)CNC(=O)[C@H](C)NC(=O)CNC(=O)[C@H](CCCCN)NC(=O)[C@@H](NC(=O)[C@H](CCCCN)NC(=O)[C@@H](NC(=O)[C@H](Cc1c[nH]c2ccccc12)NC(=O)[C@H](CC(C)C)NC(=O)[C@H](CCC(=O)O)NC(=O)[C@H](CCCCN)NC(=O)[C@H](CC(C)C)NC(=O)[C@@H](N)CC(C)C)[C@@H](C)O)[C@@H](C)CC)C(C)C)C(=O)N[C@@H](CCCCN)C(=O)NCC(=O)N[C@@H](CC(C)C)C(=O)N[C@@H](CC(C)C)C(=O)O` [LLKELWTKIKGAGKAVLGKIKGLL], the MIC is 4 µM (≈ 10.3 µg/mL) in assay [24]; 25 µM (≈ 64.5 µg/mL) in assay [25]; 2 µM (≈ 5.16 µg/mL) in [26]; no less than 32 µM in [27]; no less than 64 µM in assay [28]; no less than 85 µM in assay [29]. Also, the MIC in [30] was no less than 32 µM.
Regarding `CC(C)C[C@H](NC(=O)[C@@H]1CSSC[C@H](NC(=O)[C@H](C)NC(=O)[C@H](C)NC(=O)[C@@H](N)CC(=O)O)C(=O)N[C@@H](C)C(=O)N[C@@H](C)C(=O)N[C@@H](Cc2cnc[nH]2)C(=O)N1)C(=O)N[C@@H](Cc1ccccc1)C(=O)N[C@@H](CCCN=C(N)N)C(N)=O` [DAACAAHCLFR], the MIC in assay [31] is no less than 84.9 µM; in [32] it was no less than 84.9 µM; in [33], no less than 84.9 µM; in [34], no less than 84.9 µM; in assay [35] it was greater than 84.9 µM; in assay [36], greater than 84.9 µM. In addition, the MIC in assay [37] was no less than 84.9 µM; in assay [38] it was no less than 84.9 µM; in [39] it was greater than 84.9 µM; in [40] it was greater than 84.9 µM.
In the case of `CC(C)C[C@H](NC(=O)[C@H](CC(C)C)NC(=O)[C@H](CC(C)C)NC(=O)[C@H](CC(C)C)NC(=O)[C@H](CC(C)C)NC(=O)[C@H](CC(C)C)NC(=O)[C@H](CC(C)C)NC(=O)[C@H](CC(C)C)NC(=O)[C@H](CC(C)C)NC(=O)[C@H](CCCCN)NC(=O)[C@H](CCCCN)NC(=O)[C@@H](N)CCCCN)C(=O)N[C@@H](CCCCN)C(=O)N[C@@H](CCCCN)C(=O)N[C@@H](CCCCN)C(N)=O` [KKKLLLLLLLLLKKK], the MIC is no less than 32 µM in assay [41]; 16 µM (≈ 28.9 µg/mL) in assay [42]; no less than 32 µM in assay [43]; no less than 50 µM in [44]; greater than 50 µM in assay [45]; 50 µM (≈ 90.2 µg/mL) in assay [46]. Besides, the results for the minimal inhibitory concentration (MIC) in assay [47] and in [48] were no less than 50 µM and 50 µM (≈ 90.2 µg/mL), respectively.
